# Assay results as given in paper PMC5374635, “Inhibitory Potential of Constituents from Osmanthus fragrans and Structural Analogues Against Advanced Glycation End Products, α-Amylase, α-Glucosidase, and Oxidative Stress” (Scientific Reports, 2017).
# How the values were obtained:
# AGEs formation = experiment: Inhibition of AGEs formation (bovine serum albumin with fructose/glucose, fluorescence); assay type: biochemical; conditions: for IC50 values, AGE (inhibition of AGEs formation): means ± SE, 37 °C, 7 days; for times more active than aminoguanidine in inhibition of AGEs formation: ratio of IC50 values versus aminoguanidine
# Description: The inhibitory activity against AGEs formation was measured as described previously. To prepare the AGEs reaction solution, bovine serum albumin (10 mg/mL) dissolved in 50 mM SPB (pH 7.4) was added to 200 mM fructose, 200 mM glucose, and 0.02% NaN3 to prevent the growth of bacteria. The reaction solution (950 μL) was mixed with various concentrations of the samples (50 μL) in 10% (CH3)2SO. After incubation at 37 °C for 7 days, the fluorescence intensity of the reaction solution was analyzed using a spectrofluorometric detector (Bio-Tek Inc., Winooski, VT, USA) with an excitation wavelength of 350 nm and an emission wavelength of 450 nm. Aminoguanidine hydrochloride served as a positive control.
# [1] = DPPH radical scavenging activity; conditions: for IC50 values, DPPH: means ± SE; for times more active than ascorbic acid in DPPH radical scavenging: ratio of IC50 values versus ascorbic acid
# Description: DPPH radical scavenging activity of each sample for the inhibition of diabetic complications was evaluated as described previously. Methanol solution (100 μL) containing some concentrations of the sample or ascorbic acid (0.2 mg/mL) as a positive control was mixed with 0.2 mM DPPH (100 μL) in wells of a 96-well microplate. Each reaction volume was mixed and allowed to stand in the dark at 28 °C for 30 min. […] The DPPH solution was freshly prepared daily, and was covered and kept in the dark at 4 °C until the measurements were made. Measurements were performed at least in triplicate.
# [2] = molecular target: α-glucosidase (EC 3.2.1.20); conditions: for IC50 values, α–Glucosidase: means ± SE; for times more active than acarbose against α-glucosidase: ratio of IC50 values versus acarbose
# [3] = molecular target: T1, porcine pancreatic α-amylase (EC 3.2.1.1, type VI) (Sus scrofa, UniProt P00690); experiment: α-Amylase inhibition; assay type: biochemical; conditions: for IC50: means ± SE; for times more active than acarbose against α-amylase: ratio of IC50 values versus acarbose
# T1 construct: purchased Sigma-Aldrich (St. Louis, MO, USA) type VI (catalogue number not given)
# T1 sequence (P00690 16-511): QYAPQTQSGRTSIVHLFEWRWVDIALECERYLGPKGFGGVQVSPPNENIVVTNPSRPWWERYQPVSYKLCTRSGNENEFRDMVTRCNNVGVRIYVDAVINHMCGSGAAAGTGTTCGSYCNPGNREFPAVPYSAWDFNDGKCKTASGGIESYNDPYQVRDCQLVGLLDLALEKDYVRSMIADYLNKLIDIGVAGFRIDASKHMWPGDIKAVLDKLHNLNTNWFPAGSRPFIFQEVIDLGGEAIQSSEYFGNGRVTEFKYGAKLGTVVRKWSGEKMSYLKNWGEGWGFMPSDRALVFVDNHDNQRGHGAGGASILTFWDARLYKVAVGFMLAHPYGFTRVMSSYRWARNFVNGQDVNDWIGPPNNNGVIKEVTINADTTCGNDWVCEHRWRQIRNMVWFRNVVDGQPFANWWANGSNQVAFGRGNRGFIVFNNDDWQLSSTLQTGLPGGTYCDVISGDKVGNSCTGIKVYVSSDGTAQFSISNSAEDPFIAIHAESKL
# Description: The inhibitory activity of each sample against α-amylase was measured as described previously. Sample (40 μL) dissolved in sodium phosphate buffer (SPB, 20 mM and pH 6.9) with 6 mM NaCl was added to 1.0 U/ml α-amylase (200 μL) in SPB and incubated at 30 °C for 10 min. After 10 min, 400 μL of 0.3% starch solution in SPB was added to each tube. […] Each tube was incubated in boiling water for 20 min and cooled to 27 °C. The reaction was diluted by adding 10 ml distilled water and absorbance at 540 nm was measured using a UV-Vis spectrophotometer. The control contained 20 mM SPB (pH 6.9, 200 μL) instead of α-amylase.
# MCF-7 cells = system: MCF-7 cells; design: method as in PMID 18386789; conditions: by inhibiting Cdk 2 activity; cited from earlier work
# [4] = system: blood glucose levels in mice; experiment: Disaccharide (sucrose) loading test; assay type: in vivo; conditions: fasted male mice, 50 mg/kg via stomach tube with sucrose 2.5 g/kg, at 15 and 30 mins, compared to sucrose alone
# Description: After an overnight fast, male mice (31-35 g) were used for acute disaccharide loading tests (Fig. 2). […] A control group was loaded with sucrose only. The blood glucose levels were measured using an Accu-Check Performa portable kit, (Roche Diagnostics Korea Co., Ltd., Seoul, Korea).
Structure (SMILES),"IC50 values, AGE (inhibition of AGEs formation) (AGEs formation) [µg/mL]","IC50 values, DPPH [1] [µg/mL]","IC50 values, α–Glucosidase [2] [µg/mL]",IC50 [3] [µM],times more active than aminoguanidine in inhibition of AGEs formation (AGEs formation) [times],times more active than ascorbic acid in DPPH radical scavenging [1] [times],cell proliferation of MCF-7 cells (MCF-7 cells),times more active than acarbose against α-amylase [3] [times],effect on blood glucose levels [4],times more active than acarbose against α-glucosidase [2] [times]
"CCCCCCCCCCCCCCCCCC(=O)O [1-Heptadecanecarboxylic acid, 1-heptadecanecarboxylic acid]",34.7 ± 2.6,15.6 ± 2.2,46.2 ± 2.5,494,–,–,–,–,–,–
"CCCCCCCCCCCCCCCC(=O)O [1-Pentadecanecarboxylic acid, 1-pentadecanecarboxylic acid]",40.6 ± 0.7,20.8 ± 1.3,55.4 ± 3.2,656,–,–,–,–,–,–
"CCCCCCCCCCCCCC(=O)O [1-Tridecanecarboxylic acid, 1-tridecanecarboxylic acid]",51.2 ± 1.8,24.5 ± 1.8,60.4 ± 1.2,986,–,–,–,–,–,–
"CC(=O)C=CC1=C(C)CCCC1(C)C [4-(2,6,6-trimethyl-1-cyclohexenyl)-3-buten-2-one]",48.4 ± 2.3,20.5 ± 1.5,[…],[…],[…],1.24,[…],[…],weak suppressive effect,–
"CC(=O)C=CC1C(C)=CCCC1(C)C (centres unmarked) [4-(2,6,6-trimethyl-2-cyclohexenyl)-3-buten-2-one]",50.5 ± 1.8,23.2 ± 2.5,33.2 ± 1.8,–,–,–,–,–,–,–
"CCC=CCC=CCC=CCCCCCCCC(=O)O [9,12,15-Octadecatrienoic acid, 9,12,15-octadecatrienoic acid]",18.2 ± 2.3,7.4 ± 0.9,4.5 ± 2.4,76.1,2.95,3.45,–,7.47,–,16.78
"CCCCCC=CCC=CCCCCCCCC(=O)O [9,12-Octadecadienoic acid, 9,12-octadecadienoic acid]",15.4 ± 1.8,6.8 ± 1.2,3.4 ± 1.5,56.3,3.54,3.75,–,10.02,significant suppressive effect,22.21
"CCCCCCCCC=CCCCCCCCC(=O)O [9-Octadecenoic acid, 9-octadecenoic acid]",18.8 ± 1.1,7.6 ± 1.5,4.8 ± 0.9,83.2,–,–,–,–,–,–
"N=C(N)NN [Aminoguanidine, reference compound]",54.5 ± 0.7,–,–,–,–,–,–,–,–,–
"O=C1O[C@H]([C@@H](O)CO)C(O)=C1O [Ascorbic acid, reference compound]",–,25.5 ± 0.4,–,–,–,–,–,–,–,–
